Source: BindingDB's records for doi:10.1016/j.bioorg.2016.07.002 (Universiti Teknologi Mara, 2016)
pIC50: −log10 of the molar value.

What follows are compounds tested against T1, Beta-glucuronidase (Bos taurus, UniProt A3KMY8) (assay: β-Glucuronidase assay).
T1 sequence (A3KMY8 whole entry): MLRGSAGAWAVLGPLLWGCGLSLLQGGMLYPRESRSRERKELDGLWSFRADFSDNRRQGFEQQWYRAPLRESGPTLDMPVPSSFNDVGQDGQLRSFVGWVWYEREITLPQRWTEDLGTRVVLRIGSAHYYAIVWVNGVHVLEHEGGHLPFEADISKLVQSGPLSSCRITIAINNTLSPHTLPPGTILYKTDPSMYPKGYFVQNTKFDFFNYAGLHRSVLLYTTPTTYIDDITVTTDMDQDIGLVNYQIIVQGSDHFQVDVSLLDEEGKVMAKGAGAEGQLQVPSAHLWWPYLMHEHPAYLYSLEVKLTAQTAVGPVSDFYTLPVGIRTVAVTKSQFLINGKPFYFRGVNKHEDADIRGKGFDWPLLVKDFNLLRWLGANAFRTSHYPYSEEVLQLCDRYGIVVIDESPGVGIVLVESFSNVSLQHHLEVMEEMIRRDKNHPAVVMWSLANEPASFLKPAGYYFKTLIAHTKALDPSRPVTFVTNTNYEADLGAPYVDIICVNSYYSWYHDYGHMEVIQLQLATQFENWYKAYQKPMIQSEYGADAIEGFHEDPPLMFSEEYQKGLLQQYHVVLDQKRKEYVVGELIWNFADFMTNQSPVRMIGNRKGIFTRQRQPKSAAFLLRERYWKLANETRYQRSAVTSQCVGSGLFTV
Protocol: […] was the volume of total reaction. Reaction mixture containing 5 µL of test compound solution, 185 µL of 0.1 M acetate buffer and 10 µL of enzyme solution wereincubated for 30 min at 37 °C. […] Experiments were performed for triplicate. To avoid precipitation compound concentration were decreased and the volume of reactionwas high (200 µL).

Question: `O=S(=O)(Nc1ccccc1SSc1ccccc1NS(=O)(=O)c1ccc(Cl)cc1Cl)c1ccc(Cl)cc1Cl` [N,N'-(disulfanediylbis(2,1-phenylene))bis(2,4-dichlorobenzenesulfonamide) (17)] was tested. Which pIC50 did it give?
Answer: The pIC50 was 4.95.

Question: How did the pIC50 turn out when `O=S(=O)(Nc1ccccc1SSc1ccccc1NS(=O)(=O)c1cc(Cl)ccc1Cl)c1cc(Cl)ccc1Cl` [N,N'-(disulfanediylbis(2,1-phenylene))bis(2,5-dichlorobenzenesulfonamide) (18)] was run?
Answer: The pIC50 was 4.79.

Question: With `O=S(=O)(Nc1ccccc1SSc1ccccc1NS(=O)(=O)c1ccccc1Br)c1ccccc1Br` [N,N'-(disulfanediylbis(2,1-phenylene))bis(2-bromobenzenesulfonamide) (7)] as the compound, how does the pIC50 read?
Answer: Its pIC50 is 4.23.

Question: With `O=S(=O)(Nc1ccccc1SSc1ccccc1NS(=O)(=O)c1ccccc1Cl)c1ccccc1Cl` [N,N'-(disulfanediylbis(2,1-phenylene))bis(2-chlorobenzenesulfonamide) (1)] as the compound, how does the pIC50 read?
Answer: Its pIC50 is 5.09.

Question: How did the pIC50 turn out when `O=S(=O)(Nc1ccccc1SSc1ccccc1NS(=O)(=O)c1ccccc1F)c1ccccc1F` [N,N'-(disulfanediylbis(2,1-phenylene))bis(2-fluorobenzenesulfonamide) (4)] was run?
Answer: Its pIC50 is 5.21.

Question: `Cc1ccccc1S(=O)(=O)Nc1ccccc1SSc1ccccc1NS(=O)(=O)c1ccccc1C` [N,N'-(disulfanediylbis(2,1-phenylene))bis(2-methylbenzenesulfonamide) (14)] was tested. Which pIC50 did it give?
Answer: Its pIC50 is 4.46.

Question: With `O=[N+]([O-])c1ccccc1S(=O)(=O)Nc1ccccc1SSc1ccccc1NS(=O)(=O)c1ccccc1[N+](=O)[O-]` [N,N'-(disulfanediylbis(2,1-phenylene))bis(2-nitrobenzenesulfonamide) (10)] as the compound, how does the pIC50 read?
Answer: The pIC50 was 4.85.

Question: With `O=S(=O)(Nc1ccccc1SSc1ccccc1NS(=O)(=O)c1cccc(Br)c1)c1cccc(Br)c1` [N,N'-(disulfanediylbis(2,1-phenylene))bis(3-bromobenzenesulfonamide) (9)] as the compound, how does the pIC50 read?
Answer: Its pIC50 is 4.05.

Question: `O=S(=O)(Nc1ccccc1SSc1ccccc1NS(=O)(=O)c1cccc(Cl)c1)c1cccc(Cl)c1` [N,N'-(disulfanediylbis(2,1-phenylene))bis(3-chlorobenzenesulfonamide) (2)] was tested. Which pIC50 did it give?
Answer: Its pIC50 is 4.60.

Question: How did the pIC50 turn out when `O=S(=O)(Nc1ccccc1SSc1ccccc1NS(=O)(=O)c1cccc(F)c1)c1cccc(F)c1` [N,N'-(disulfanediylbis(2,1-phenylene))bis(3-fluorobenzenesulfonamide) (5)] was run?
Answer: The pIC50 was 4.46.

Question: How did the pIC50 turn out when `O=[N+]([O-])c1cccc(S(=O)(=O)Nc2ccccc2SSc2ccccc2NS(=O)(=O)c2cccc([N+](=O)[O-])c2)c1` [N,N'-(disulfanediylbis(2,1-phenylene))bis(3-nitrobenzenesulfonamide) (12)] was run?
Answer: Its pIC50 is 4.23.

Question: With `O=S(=O)(Nc1ccccc1SSc1ccccc1NS(=O)(=O)c1ccc(F)cc1)c1ccc(F)cc1` [N,N'-(disulfanediylbis(2,1-phenylene))bis(4-fluorobenzenesulfonamide) (6)] as the compound, how does the pIC50 read?
Answer: Its pIC50 is 4.88.

Question: How did the pIC50 turn out when `COc1ccc(S(=O)(=O)Nc2ccccc2SSc2ccccc2NS(=O)(=O)c2ccc(OC)cc2)cc1` [N,N'-(disulfanediylbis(2,1-phenylene))bis(4-methoxybenzenesulfonamide) (20)] was run?
Answer: Its pIC50 is 4.25.

Question: How did the pIC50 turn out when `O=[N+]([O-])c1ccc(S(=O)(=O)Nc2ccccc2SSc2ccccc2NS(=O)(=O)c2ccc([N+](=O)[O-])cc2)cc1` [N,N'-(disulfanediylbis(2,1-phenylene))bis(4-nitrobenzenesulfonamide) (11)] was run?
Answer: The pIC50 was 4.55.
